# Data from patent US20070207946A1, “Dipeptidyl peptidase IV inhibitors and their uses for lowering blood pressure levels” (priority 2001, published 2007).
# Where two headings read alike, the source gives them in different places.
# Key:
# [1] = tested on: Dipeptidyl Peptidase I (DP I, Cathepsin C); assay: Cross reacting enzymes - dipeptidyl peptidase I; assay type: biochemical; details: concentration range 1*10^−5 M-1*10^−7M; MES buffer pH5.6
# Description: DP I or cathepsin C is a lysosomal cysteine protease which cleaves off dipeptides from the N-terminus of their substrates (Gutman, H. R. & Fruton, J. S., 1948, J. Biol: Chem., 174, 851-858). It is classified as a cysteine protease. The enzyme used was purchased from Qiagen (Qiagen GmbH, Hilden, Germany). In order to get a fully active enzyme, the enzyme was diluted 1000 fold in MES buffer pH5.6 (40 mM MES, 4 mM DTT, 4 mM KCl, 2 mM EDTA, 0.015% Brij) and pre-incubated for 30 min at 30° C.
# 50 μl glutaminyl pyrrolidine or glutaminyl thiazolidine in a concentration range of 1*10^−5 M-1*10^−7M were admixed with 110 μl buffer-enzyme-mixture. The assay mixture was pre-incubated at 30° C. for 15 min. After pre-incubation, 100 μl histidylseryl-[…]-nitroaniline (2*10^−5M) was added and measurement of yellow color development due to β-nitroaniline release was performed at 30° C. and […] for 10 min., using a plate reader (HTS7000 plus, Applied Biosystems, Weiterstadt, Germany).
# The IC50-values were calculated using Graphit 4.0.15 (Erithacus Software, Ltd., UK).
# plasma DPIV activity = target: T1, plasma DPIV activity (Rattus norvegicus, UniProt P14740); assay: DPIV inhibiting activity after intravasal and oral administration to Wistar rats; assay type: in vivo; details: rat
# T1 construct: from tissue; host or cells: plasma of Wistar rats
# T1 sequence (P14740 38-767 limits assumed): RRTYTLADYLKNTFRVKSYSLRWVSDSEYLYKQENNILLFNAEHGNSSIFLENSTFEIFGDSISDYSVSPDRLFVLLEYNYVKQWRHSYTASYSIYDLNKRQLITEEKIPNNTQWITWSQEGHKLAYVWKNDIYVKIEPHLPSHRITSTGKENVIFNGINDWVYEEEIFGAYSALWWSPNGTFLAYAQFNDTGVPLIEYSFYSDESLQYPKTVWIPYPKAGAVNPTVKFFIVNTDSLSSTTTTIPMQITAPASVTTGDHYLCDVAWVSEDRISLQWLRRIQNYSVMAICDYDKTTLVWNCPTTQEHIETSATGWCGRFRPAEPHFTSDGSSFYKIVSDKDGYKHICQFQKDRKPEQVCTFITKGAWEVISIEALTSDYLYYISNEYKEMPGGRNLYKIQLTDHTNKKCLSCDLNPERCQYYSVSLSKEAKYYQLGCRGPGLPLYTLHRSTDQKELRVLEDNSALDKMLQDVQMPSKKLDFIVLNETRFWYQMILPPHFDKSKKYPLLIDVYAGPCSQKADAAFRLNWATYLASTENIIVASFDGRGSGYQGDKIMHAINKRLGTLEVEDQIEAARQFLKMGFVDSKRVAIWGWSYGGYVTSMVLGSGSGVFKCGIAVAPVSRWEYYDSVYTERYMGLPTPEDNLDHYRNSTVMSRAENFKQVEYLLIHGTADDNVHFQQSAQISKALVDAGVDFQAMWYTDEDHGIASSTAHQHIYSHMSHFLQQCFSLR
# Description: Male Wistar rats (Shoe: Wist(Sho)) with a body weight ranging between 250 and 350 g were purchased from Tierzucht Schönwalde (Schönwalde, Germany).
# Animals were single-caged under conventional conditions with controlled temperature (22±2° C.) on a 12/12 hours light/dark cycle (light on at 06:00 AM). Standard pelleted chow (ssniff® Soest, Germany) and tap water acidified with HCl were allowed ad libitum.
# After ≧one week of adaptation at the housing conditions, catheters were implanted into the carotid artery of Wistar rats under general anaesthesia (i.p. injection of 0.25 ml/kg b.w. Rompun® [2%], BayerVital, Germany and 0.5 ml/kg b.w. Ketamin 10, Atarost GmbH & Co., Twistringen, Germany). The animals were allowed to recover for one week. The catheters were flushed with heparin-saline (100 IU/ml) three times per week. In case of catheter dysfunction, a second catheter was inserted into the contra-lateral carotid artery of the respective rat. After one week of recovery from surgery, this animal was reintegrated into the study. In case of dysfunction of the second catheter, the animal was withdrawn from the study. A new animal was recruited and the experiments were continued in the planned sequence, beginning at least 7 days after catheter implantation.
# After overnight fasting, 100 μl samples of heparinised arterial blood were collected at −30, −5, and 0 min. […] In the case of oral administration, an additional volume of 1 ml saline was injected into the arterial catheter. In the case of infra-arterial administration, the catheter was immediately flushed with 30 μl saline and an additional 1 ml of saline was given orally via the feeding tube.
# All blood samples were collected into ice cooled Eppendorf tubes (Eppendorf-Netheler-Hinz, Hamburg, Germany) filled with 10 μl 1M sodium citrate buffer (pH 3.0) for plasma DPIV activity measurement. Eppendorf tubes were centrifuged immediately (12000 rpm for 2 min, Hettich Zentrifuge EBA 12, Tuttlingen; Germany): The plasma fractions were stored on ice until analysis or were frozen at −20° C. until analysis. All plasma samples were labelled with the following data:
# The assay mixture for determination of plasma DPIV activity consisted of 80 μl reagent and 20 μl plasma sample. […] The DPIV activity was expressed in mU/ml.
# All parameters were analysed in a descriptive manner including mean and SD.
# diabetic Zucker rats = assay: Dose escalation study in fatty Zucker rats, oral glucose tolerance test; assay type: in vivo, rat; details: 2 g/kg glucose
# Description: N=30 male Zucker rats (fa/fa), mean age 11 weeks (5-12 weeks), mean body weight 350 g (150-400 g), were purchased from Charles River (Sulzfeld, Germany).
# After delivery they were kept for >12 weeks until nearly all fatty Zucker rats had the characteristics of manifest diabetes mellitus. A group of N=8 animals were recruited for testing three escalating doses of glutaminyl pyrrolidine vs. placebo (saline).
# Placebo (1 ml saline, 0.154 mol/l) or escalating doses of glutaminyl pyrrolidine (5, 15 and 50 mg/kg b.w.) were administered to groups of N=8 fatty Zucker rats. 375 mg of glutaminyl pyrrolidine were dissolved in 1000 μl DMSO (E. Merck, Darmstadt; Germany [Dimethyl sulfoxide p.a.]). 10 ml saline were added and 1 ml aliquots, each containing 34.09 mg of glutaminyl pyrrolidine, were stored at −20° C. For preparation of the test substance, dose dependent aliquots were diluted in saline.
# After overnight fasting, placebo or test substance were administered to the fatty Zucker rats via feeding tube orally (15 G, 75 mm; Fine Science Tools, Heidelberg, Germany) at −10 min An oral glucose tolerance test (OGTT) with 2 g/kg b.w. glucose (40% solution, B. Braun Melsungen, Melsungen, Germany) was administered at ±0 min via a second feeding tube. Venous blood samples from the tail veins were collected at −30 min, −15 min, ±0 min and at 5, 10, 15, 20, 30, 40, 60, 90 and 120 min into 20 μl glass capillaries, which were placed in standard tubes filled with 1 ml solution for blood glucose measurement.
# Glucose levels were measured using the glucose oxidase procedure (Super G Glucose analyzer; Dr. Müller Gerätebau, Freital, Germany).
# Statistical evaluations and graphics were performed with PRISM® 3.02 (GraphPad Software, Inc.). All parameters were analysed in a descriptive manner including mean and SD.
# After delivery they were kept for >12 weeks until nearly all fatty Zucker rats had the characteristics of manifest diabetes mellitus. […]
# Glucose levels were measured using the glucose oxidase procedure (Super G Glucose analyzer; Dr. Möller Gerätebau, Freital, Germany).
structure (smiles),measurement,setting,value
"NC(=O)CCC(N)C(=O)N1CCCC1 (stereo not drawn) [Gln-Pyrr, glutaminyl pyrrolidine]",inhibition of DP I enzyme activity,[1],No inhibition
same,inhibition at 100 mg/kg,"plasma DPIV activity; iv, intra-vasal (intra-arterial) route, read-out: in vivo DPIV-inhibition at tmax, i.v.",80%
same,inhibition at 100 mg/kg,"plasma DPIV activity; oral, read-out: in vivo DPIV-inhibition at tmax, p.o.",67%
same,glucose tolerance (OGTT),diabetic Zucker rats; 5 mg/kg b.w. oral,limited improvement
same,elevated blood glucose levels and glucose tolerance (OGTT),diabetic Zucker rats; 15 mg/kg oral,Significant lowering
same,elevated blood glucose levels and glucose tolerance (OGTT),diabetic Zucker rats; 50 mg/kg b.w. oral,Significant lowering
